What all share (experiment): NCI tumour cell line growth inhibition, 48 h
In assay [1] the test system is A498 renal.
Assay [2] deals with MDA-MB-231 breast.
Assay [3] relates to NCI-H522 lung.
In assay [4] the test system is RPMI-8226 leukemia.
Assay [5] has as its system SW-620 colon.
Assay [6] relates to U251 CNS.
The test system of assay [7] is UACC-62 melanoma.
The subject of assay [8] is UO-31 renal.
The test system of assay [9] is SK-MEL-28 melanoma.
Assay [10] has as its system SNB-75 CNS.

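Tested at 5 concentrations; 48 h exposure; 96-well plates; endpoints linearly interpolated, else capped at highest concentration. At the GI50, growth is halved. The concentration for full growth arrest is given as TGI.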

`COC(=O)C1C(C(=O)O)C2(c3ccccc3)C(=O)C1(c1ccccc1)C(c1ccccc1)=C2c1ccccc1` (stereo unspecified): the GI50 in assay [1] is 15.2 µM; in [2], 19.4 µM; in [3], 16 µM; in assay [4], 15.7 µM; in [5], 19.8 µM; in [6], 24.2 µM. Also, the figures for the GI50 in [7] and in assay [8] were 15.5 µM and 17.9 µM, respectively. For the same molecule, the TGI in assay [1] is 29.3 µM; in assay [2] it was 38.5 µM; in [3], 34.1 µM; in [4] it was 45.7 µM; in assay [5] it was 40.2 µM; in assay [6], over 100 µM. Further, the TGI in [7] turned out to be 29.9 µM; in assay [8], 36 µM.

With `COC(=O)[C@H](Cc1cn(C)cn1)NC(=O)[C@H](CC(=O)OCc1ccccc1)NC(=O)Nc1cc(C(F)(F)F)cc(C(F)(F)F)c1`, the GI50 is 12.8 µM in assay [1]; 10.9 µM in assay [2]; 8.53 µM in assay [3]; 4.24 µM in assay [4]; 9.51 µM in [9]; 11.8 µM in [10]. Also, the GI50 in [5] was 6.66 µM; in [6], 2.61 µM; in assay [8] it was 11.5 µM. Moreover, the TGI in assay [1] was determined as 25.4 µM; in assay [2], 23.3 µM; in assay [3], 21.4 µM; in assay [4] it was 17.5 µM; in assay [9] it was 21.6 µM; in assay [10] it was 24.1 µM. Also, the TGI in assay [5] turned out to be 21.1 µM; in assay [6], 7.85 µM; in assay [8], 24.2 µM.

For the molecule `CC(=Nc1ccc(N(C)C)cc1)c1ccccc1`, the TGI in assay [1] is over 100 µM; in [2], 35.4 µM; in assay [3], 40.8 µM; in [9], over 100 µM; in [10] it was 77.4 µM; in assay [5], 39.7 µM. The TGI in assay [6] is over 100 µM; in assay [7], 33.6 µM; in [8], 40.7 µM.

Regarding `Nc1ccccc1C#C/C=C\C#Cc1ccccc1C#CCO`, the GI50 is 7.73 µM in assay [2]; 11.8 µM in assay [3]; 24.3 µM in assay [4]; 15.3 µM in assay [9]; 18 µM in assay [10]; 4.4 µM in [5]. Also, the GI50 in assay [6] was 7.41 µM; in [7], 5.69 µM; in assay [8] it was 6.69 µM. Moreover, the TGI was 28.7 µM in assay [2]; 28.2 µM in assay [3]; over 50 µM in assay [4]; over 50 µM in assay [9]; 42.1 µM in assay [10]; 35.8 µM in assay [5]. In addition, the TGI in [6] was 18.7 µM; in assay [7], 15.3 µM; in assay [8] it was over 50 µM.

Take `COc1cc(-c2nn(-c3ccc(NC(=O)Nc4cc(C(F)(F)F)cc(C(F)(F)F)c4)cc3)cc2-c2ccncc2)ccc1Cl`: the GI50 in assay [1] was 1.81 µM; in assay [2], 1.64 µM; in [3] it was 2.25 µM; in [9], 1.93 µM; in assay [10], 1.99 µM; in [5], 1.87 µM. Besides, the GI50 was 1.8 µM in assay [6], 1.55 µM in assay [7] and 1.34 µM in assay [8]. Besides, the TGI in [1] was determined as 3.79 µM; in assay [2], 3.34 µM; in [3], 5.99 µM; in assay [9], 3.74 µM; in assay [10], 5.35 µM; in assay [5], 3.84 µM. Also, the TGI in [6] was 4.52 µM; in assay [7] it was 3.4 µM; in assay [8], 3.22 µM.

For `COc1ccc2c(c1)C(=Nc1ccc(F)c(Cl)c1)c1c-2c(Nc2ccc(F)c(Cl)c2)nc2ccccc12`, the GI50 is 28.1 µM in assay [1]; 23 µM in assay [2]; 44.3 µM in assay [3]; over 60.4 µM in assay [4]; over 100 µM in assay [9]; over 100 µM in assay [5]. The GI50 in assay [6] was 18.8 µM; in assay [7] it was 22.3 µM; in assay [8], over 100 µM. The TGI was 86.8 µM in assay [1]; over 61.3 µM in assay [2]; over 100 µM in assay [3]; over 100 µM in [4]; over 100 µM in assay [9]; over 100 µM in [5]. In addition, the figures for the TGI in [6], in assay [7] and in assay [8] were 43.8 µM, over 70.5 µM and over 100 µM, respectively.

Consider `O=C(Nc1ccncc1)C(=O)c1cn(S(=O)(=O)c2cccc(Cl)c2)c2ccccc12`, for which the GI50 in assay [1] is 25.4 µM; in assay [2], 10.6 µM; in [3], 2.41 µM; in [9], 10.2 µM; in assay [10], 5.16 µM; in [5], 4.74 µM. Further, the GI50 in [6] is 5.78 µM; in assay [7] it was 5.81 µM; in assay [8], 11.7 µM. Also, the TGI in assay [1] is over 100 µM; in [2], 43.9 µM; in assay [3], 16.9 µM; in [9], 60.1 µM; in assay [10], 23.2 µM; in [5], over 100 µM. Further, the TGI in assay [6], in assay [7] and in [8] was over 100 µM throughout.

For `COc1ccc(Oc2nc3cc(N)cc(N)c3nc2-c2ccccc2)cc1`, the GI50 is 49.3 µM in assay [1]; 20.4 µM in [2]; 31.4 µM in assay [3]; 19.6 µM in assay [9]; 88.2 µM in [5]; 26.6 µM in assay [6]. Also, the GI50 was 63.5 µM in assay [7] and 28.5 µM in assay [8]. Further, the TGI in assay [1] was over 100 µM; in assay [2], 64.5 µM; in assay [3], over 100 µM; in assay [4], 71.4 µM; in [9], 49 µM; in [5], over 100 µM. The TGI in assay [6], in assay [7] and in [8] was over 100 µM each time.

With `O=C(Oc1ccccc1)N(c1ccccc1)c1ccccc1`, the GI50 in assay [1] was 10.4 µM; in assay [2] it was 28 µM; in assay [10], 19.6 µM; in assay [5], 38.8 µM; in [6], 31.1 µM; in assay [7], 22.3 µM. For the same molecule, the GI50 in [8] was 15 µM. Further, the TGI was 62.7 µM in assay [1]; over 100 µM in assay [2]; 52.5 µM in assay [10]; over 100 µM in assay [5]; over 100 µM in assay [6]; over 100 µM in assay [7]. This molecule also registered a TGI in assay [8] of over 100 µM.

The values are drawn from PubChem BioAssay (NCI).
